One assay has as its system angiogenesis. To be noted: Brem et al; in words; cited from earlier work.
Assay [1] relates to Adult Bovine Aortic Endothelial (ABAE) cell line. The assay can be described thus: Antiproliferative activity in Adult Bovine Aortic Endothelial (ABAE) cell line, PROTOCOL 3 (4 days, cell count). It is filed as cell-based. To be noted: for IC50: Bos taurus, 96 h. As to the method:
(§1) The antiproliferative activity of the compounds of Formula I in an Adult Bovine Aortic Endothelial (ABAE) cell line and in Human Tumor cells lines is evaluated in three similar assays that measure growth inhibition. The assays are identified as follows:
(§2) PROTOCOLS 1, 2, and 3 are described in greater detail hereinbelow. In general, according to PROTOCOLS 1 and 2, the target ABAE and/or Human Tumor cells are exposed to the compounds of Formula I for 48 hours. PROTOCOL 3 exposes ABAE cells to the compounds for 4 days. A detailed description of the Protocols is as follows:
Antiproliferative Activity in Adult Bovine Aortic Endothelial (ABAE) Cell Line
ABAE cells are grown in DMEM media (Mediatech, Washington, D.C.) supplemented with 10% calf serum (Hyclone). ABAE cells are plated in 24-well dishes at 8,000 cells/well, followed by the addition of increasing concentrations of 7-halogen-9-[hydrogen or [(substituted glycyl)amido]]-6-demethyl-6-deoxytetracycline. After four days, the cells are detached and counted. […] The growth inhibition (I) as % of control is calculated as follows: [formula] wherein: Nc is the number of cells in untreated wells;
Nt is the number of cells in treated wells;
No is the number of plated cells.
IC50 of growth inhibition is determined from the sets of I values plotted by Kaleidograph software (Abelbeck Software).
Table 1 presents the results depicting the antiproliferative activity of the compounds of Formula I against an ABAE cell line, as evaluated by PROTOCOL 2 and PROTOCOL 3. The results are presented in terms of IC50 and are as follows.

Another assay deals with SW620. The assay can be described thus: Antiproliferative activity in human tumor cell lines, PROTOCOL 1 and PROTOCOL 2. It is filed as cell-based. As for the experimental part:
as §1, §2
(§3) Antiproliferative Activity in Human Tumor Cell Lines
(§4) The antiproliferative activity of the compounds of Formula I of the present invention is evaluated in a panel comprised of human tumor cell lines. The human tumor cell lines are from
(§5) 2) Colon tumors: MIP, CACO2, and SW620.
(§6) All cell lines are maintained in log phase in RPMI 1640 media, supplemented with 5% fetal calf serum, penicillin/streptomycin and 2 mM L-glutamine. Cultures are renewed after 20 passages with cells from a fresh stock of batch-frozen early passage cells. Cell lines are routinely checked for mycoplasma contamination (Genprobe). In a laminar flow hood, cells (1-5×10^4) are plated into 96-well microtiter plates in a volume of 0.1 ml/well with a bulk microtiter dispenser (Denley). […] At this concentration, dimethylsulfoxide has no effect on cell growth. Compounds are added using a Tomtec dispenser which simultaneously dispenses from one 96-well plate, containing the drug dilutions, to the plates containing the cells. After two days of continuous drug exposure, 50% cold trichloroacetic acid (TCA) is added to 10% final concentration to fix the cells, and after 60 minutes at 4° C., the TCA is aspirated and the plates are washed 5 times with deionized water using a microtiter plate washer. The number of cells on the plate are quantitated using a protein dye-binding assay (Monks et al., 1991). A 0.4% solution of the dye, sulforhodamine B, in […] is added to the plates, and the plates are washed 5 times with 1% glacial acetic acid using the automatic plate washed. The bound stain is solubilized with 0.1 ml of 10 mMTris base. The optical densities are read from an automatic spectrophotometric plate reader (Dynatech) directly to a main frame computer (VAX 8600).
(§7) Positive controls, that include standard chemotherapeutic drugs (i.e., adriamycin, cisplatin, etc.), are included in every experiment.
(§8) Background optical density measurements (complete media--cells, and complete media+drug-cells) are automatically subtracted from the appropriate control and test wells. Mean values and standard errors are determined from duplicate wells. A measure is also made of the optical density at time when the drugs are added. The number of cells after treatment (P), as % of control, is calculated for every concentration of drug, as follows: [formula] wherein: T is optical density measurement for treated cells after 48 hours;
(§9) C is optical density measurement for untreated cells after 48 hours;
(§10) Co is optical density measurement for cells at the time of drug addition.
(§11) IC50 of Growth inhibition is calculated from the sets of P values using the RS-1 data package (BBN Software).
(§12) Antiproliferative Activity in Human Tumor and Adult Bovine Aortic Endothelial Cell Lines (ABAE)
(§13) The antiproliferative activity of the compounds of Formula I is evaluated in a panel comprised of human tumor cell lines as listed in Protocol 1 as well as an adult bovine aortic endothelial cell line (ABAE). This assay is a modification of PROTOCOL 1. The modifications include:
(§14) 1) each concentration for each compound is tested in a single well;
(§15) 2) compounds are tested at 20, 4, 0.8, 0.16 microgram/ml and additionally in some experiments at 100 and 0.32 microgram/ml;
(§16) 3) samples are pipetted into a 96-well plate for each of the cell lines by a Beckman Biomek 1000 SL robot; […]

For the next assay, the system named is CACO2. The description is as above. It is filed as cell-based. The following applies: Caco-2, colon tumor cell line CACO2, 48 hours, read-out: IC50. As to the method: as §1, §2, §3, §4, §5, §6, §7, §8, §9, §10, §11, §12, §13, §14, §15, §16
A further assay relates to MIP. The description is as above. It is filed as cell-based. The following applies: colon tumor cell line MIP, 48 hours. As to the method: as §1, §2, §3, §4, §5, §6, §7, §8, §9, §10, §11, §12, §13, §14, §15, §16
For the next assay, the system named is Human Tumor cell lines. The assay can be described thus: Antiproliferative activity in panel of human tumor cell lines (average / panel as a whole), PROTOCOL 1 and PROTOCOL 2. It is filed as cell-based. The following applies: Homo sapiens; average over the tumor cell lines tested. As for the experimental part: as §1, §2, §3, §4, §5, §6, §7, §8, §9, §10, §11, §12, §13, §14, §15, §16

In another assay the test system is A2780/DDP. The assay can be described thus: Antiproliferative activity in human tumor cell lines, PROTOCOL 1 and PROTOCOL 2. It is filed as cell-based. As for the experimental part: (§17) The assays are identified as follows: PROTOCOLS 1, 2, and 3 are described in greater detail hereinbelow. In general, according to PROTOCOLS 1 and 2, the target ABAE and/or Human Tumor cells are exposed to the compounds of Formula I for 48 hours. PROTOCOL 3 exposes ABAE cells to the compounds for 4 days. A detailed description of the Protocols is as follows: Antiproliferative Activity in Human Tumor Cell Lines The antiproliferative activity of the compounds of Formula I of the present invention is evaluated in a panel comprised of human tumor cell lines. […] Cultures are renewed after 20 passages with cells from a fresh stock of batch-frozen early passage cells. Cell lines are routinely checked for mycoplasma contamination (Genprobe). In a laminar flow hood, cells (1-5×10^4) are plated into 96-well microtiter plates in a volume of 0.1 ml/well with a bulk microtiter dispenser (Denley). […] Compounds are added using a Tomtec dispenser which simultaneously dispenses from one 96-well plate, containing the drug dilutions, to the plates containing the cells. After two days of continuous drug exposure, 50% cold trichloroacetic acid (TCA) is added to 10% final concentration to fix the cells, and after 60 minutes at 4° C., the TCA is aspirated and the plates are washed 5 times with deionized water using a microtiter plate washer. […] A 0.4% solution of the dye, sulforhodamine B, in glacial acetic acid is added to the plates, and the plates are washed 5 times with 1% glacial acetic acid using the automatic plate washed. The bound stain is solubilized with 0.1 ml of 10 mMTris base. The optical densities are read from an automatic spectrophotometric plate reader (Dynatech) directly to a main frame computer (VAX 8600). Positive controls, that include standard chemotherapeutic drugs (i.e., adriamycin, cisplatin, etc.), are included in every experiment. Background optical density measurements (complete media--cells, and complete media+drug-cells) are automatically subtracted from the appropriate control and test wells. Mean values and standard errors are determined from duplicate wells. A measure is also made of the optical density at time when the drugs are added. The number of cells after treatment (P), as % of control, is calculated for every concentration of drug, as follows: [formula] wherein: T is optical density measurement for treated cells after 48 hours; C is optical density measurement for untreated cells after 48 hours; Co is optical density measurement for cells at the time of drug addition. IC50 of Growth inhibition is calculated from the sets of P values using the RS-1 data package (BBN Software). Antiproliferative Activity in Human Tumor and Adult Bovine Aortic Endothelial Cell Lines (ABAE) The antiproliferative activity of the compounds of Formula I is evaluated in a panel comprised of human tumor cell lines as listed in Protocol 1 as well as an adult bovine aortic endothelial cell line (ABAE). This assay is a modification of PROTOCOL 1.

The test system of another assay is A2780S. The assay is described as above. It is filed as cell-based. As to the method: as §17
Another assay concerns HTB 161. The description is as above. It is filed as cell-based. The following applies: HTB 161, 48 hours. As to the method:
as §17

The mark [2] stands for this setting: SW-620, colon tumor cell line SW620, 48 hours, read-out: IC50.
Setting [3] is: ovarian tumor cell line A2780S, 48 hours, read-out: IC50.

The values that follow come from patent US5574026A, “Methods for inhibiting angiogenesis proliferation of endothelial or tumor cells and tumor growth” (American Cyanamid Company, priority 1994, dated 1996).

SMILES strings stand for the structures. Counter-ions that a name gives are not always drawn. Like-named read-outs stand apart in the source and are kept apart here.

Take `CN(C)[C@@H]1C(O)=C(C(N)=O)C(=O)[C@@]2(O)C(O)=C3C(=O)c4c(O)ccc(Cl)c4[C@@](C)(O)[C@H]3C[C@@H]12` [Chlortetracycline]: the inhibition of angiogenesis entry in the assay on angiogenesis was “useful as inhibitors of angiogenesis”.

Turning to `CN(C)[C@@H]1C(O)=C(C(N)=O)C(=O)[C@@]2(O)C(O)=C3C(=O)c4c(O)c(NC(=O)CN5CCCCC5)cc(I)c4CC3CC12` (stereo partly drawn) [Example 6, [7S-(7α,10aα)]-N-9-[(Aminocarbonyl)-7-(dimethylamino)-5,5a,6,6a,7,10,10a,12-octahydro-1,8,10a,11-tetrahydroxy-4-iodo-10,12-dioxo-2-naphthacenyl]-1-piperidine-acetamide dihydrochloride], the IC50 in assay [1] (ABAE cells, PROTOCOL 3, 4 days, read-out: IC50 PROTOCOL 3) was 2.5 µg/mL; in [1] (FIG. 1, ABAE, 4 day assay (Protocol 3), read-out: inhibits 50% of cell growth at), around 2 µg/mL; in the assay on SW620 (setting [2]), 0.4 µg/mL; in the assay with CACO2 it was 4 µg/mL; in the assay on MIP, 0.6 µg/mL; in the assay on Human Tumor cell lines, 1 µg/mL. Besides, the IC50 in the assay on A2780/DDP (ovarian tumor cell line /DDP, 48 hours, read-out: IC50) stood at 0.8 µg/mL; in the assay on A2780S (setting [3]) it was 0.2 µg/mL; with HTB 161 it was 0.2 µg/mL. Besides, in assay [1] (FIG. 1, 4 day assay (Protocol 3), in words), the “activity upon incubation with cells” value was “retains its activity”. Further, the “activity in preventing the proliferation of ABAE cells compared to Minocycline” value in assay [1] (Table 1, in words) is on record as “increased activity”.

Consider `CN(C)[C@@H]1C(O)=C(C(N)=O)C(=O)[C@@]2(O)C(O)=C3C(=O)c4c(O)ccc(Cl)c4[C@@H](O)[C@H]3C[C@@H]12` [Demeclocycline], for which the inhibition of angiogenesis result in the assay on angiogenesis is listed as “useful as inhibitors of angiogenesis”.

In the case of `CN(C)[C@@H]1C(O)=C(C(N)=O)C(=O)[C@@]2(O)C(O)=C3C(=O)c4c(O)c(NC(=O)CN5CCCC5)cc(I)c4CC3CC12` (stereo partly drawn) [Example 5, [7S-(7α,10aα)]-N-9-[(Aminocarbonyl)-7-(dimethylamino)-5,5a,6,6a,7,10,10a,12-octahydro-1,8,10a,11-tetrahydroxy-4-iodo-10,12-dioxo-2-naphthacenyl]-1-pyrrolidineacetamide dihydrochloride], the IC50 is 4 µg/mL in the assay with SW620 (SW-620, 48 h); 4 µg/mL in the assay with MIP; 3.8 µg/mL in the assay with Human Tumor cell lines; 4 µg/mL in the assay on A2780/DDP (48 h); 4 µg/mL in the assay on A2780S (A2780S, 48 h); 3 µg/mL in the assay with HTB 161.

In the case of `CN(C)[C@@H]1C(O)=C(C(N)=O)C(=O)[C@@]2(O)C(O)=C3C(=O)c4c(O)c(NC(=O)CNC5CCCC5)cc(I)c4CC3CC12` (stereo partly drawn) [Example 7, [4S-(4',12aα)]-9-[[(Cyclopentylamino)acetyl]amino]-4-(dimethylamino)-1,4,4a,5,5a,6,11,12a-octahydro-3,10,12,12a-tetrahydroxy-7-iodo-1,11-dioxo-2-maphthacenecarboxamide dihydrochloride], the IC50 with SW620 (setting [2]) is 3 µg/mL; with Human Tumor cell lines, 2 µg/mL; in the assay on A2780S (setting [3]) it was 2 µg/mL; in the assay with HTB 161 it was 1 µg/mL.

Regarding `CN(C)[C@@H]1C(O)=C(C(=O)NCNCCCC[C@H](N)C(=O)O)C(=O)[C@@]2(O)C(O)=C3C(=O)c4c(O)cccc4[C@@](C)(O)[C@H]3C[C@@H]12` [Lymecycline], the inhibition of angiogenesis entry in the assay on angiogenesis is recorded as “useful as inhibitors of angiogenesis”.
